Reference: patent publication US11628163B2, “1-piperidinepropionic acid for treating a fibrosing disease” (UNIVERSITÀ DEGLI STUDI DI PADOVA, priority 2017, dated 2023)
Entries after “also recorded” stand apart in the source; their conditions may differ.

B1: SerpinB3: recombinant SerpinB3 (Squamous Cell Carcinoma Antigen, SCCA1), a serine protease inhibitor, added as exogenous stimulus (protein, UniProt P29508 1-390, looked up)
Serpin B3: MNSLSEANTKFMFDLFQQFRKSKENNIFYSPISITSALGMVLLGAKDNTAQQIKKVLHFDQVTENTTGKAATYHVDRSGNVHHQFQKLLTEFNKSTDAYELKIANKLFGEKTYLFLQEYLDAIKKFYQTSVESVDFANAPEESRKKINSWVESQTNEKIKNLIPEGNIGSNTTLVLVNAIYFKGQWEKKFNKEDTKEEKFWPNKNTYKSIQMMRQYTSFHFASLEDVQAKVLEIPYKGKDLSMIVLLPNEIDGLQKLEEKLTAEKLMEWTSLQNMRETRVDLHLPRFKVEESYDLKDTLRTMGMVDIFNGDADLSGMTGSRGLVLSGVLHKAFVEVTEEGAEAAAATAVVGFGSSPTSTNEEFHCNHPFLFFIRQNKTNSILFYGRFSSP

How the values were obtained:
[1] = test system: SerpinB3; assay: SerpinB3 mRNA expression in HT29 tumor cells (real-time PCR); assay type: cell-based; conditions: 24 hours
Description: HT29 tumor cells, constitutively expressing SerpinB3, were used, […] cells/well were seeded into 6-well plates and kept 24 hours prior to treatment in modified McCoy medium (Sigma-Aldrich, Milan, Italy) supplemented with heat-inactivated 10% fetal calf serum, (Sigma-Aldrich, Milan, Italy), 100 U/ mL penicillin, […] streptomycin, and 20 mM L-glutamine (Sigma-Aldrich, Milan, Italy),
Then, PPA (1′-piperidinepropionic acid) was added, at a concentration of 100 ng/ml alone or in combination with recombinant SerpinB3 (SB3) at a concentration of 200 ng/ml, whereas the medium alone (untreated HT-29 cells) was added into control wells. After 24 hours of treatment cells were harvested, and extraction of total cell RNA and reverse transcription were performed according to standard protocols. mRNA SerpinB3 levels were measured by real-time PCR (sense: 5′-GCAAATGCTCCAGAAGAAAG-3′; reverse 5′-CGA GGC AAA ATGAAAA AGA TG-3′) and the results were normalized on the basis of data obtained with housekeeping HPRT1 (sense 5′-TCAGGCAGTATAATCC AAAGATGGT-3′; reverse 5′-[…] -3′).

[2] = test system: experimental murine model of steatohepatitis (NASH); assay: Murine model of steatohepatitis (NASH): methionine- and choline-deficient diet (MCD), SerpinB3-transgenic and wild-type (C57BL/7) mice; assay type: in vivo; conditions: for liver histology: steatosis and lobular damage / relative liver weight (liver weight/body weight): MCD diet 8 weeks, i.p. daily from Week 4, PPA 0.01 μg/g or Curcumin 0.2 mg/g; for liver histology: steatosis and lobular damage: especially transgenic mice liver; for relative liver weight (liver weight/body weight): wild-type and SerpinB3-transgenic mice, more evident in transgenic mice
Description: PPA effect was also assessed in a murine model of fibrosing disease, in particular an experimental model of non-alcoholic steatohepatitis, which is a condition in which a fatty liver, associated with inflammation and fibrosis production, causes, among other things, a high risk of neoplastic transformation. In the study, both SerpinB3-transgenic mice and the respective wild-type (C57BL/7) strain were used, fed for 8 weeks with a methionine- and choline-deficient diet (MCD), which constitutes a recognized steatohepatitis induction model, or with a normal diet. MCD diet-treated transgenic and control mice groups starting from Week 4, were administered daily by intraperitoneal route, PPA (0.01 μg/g), or Curcumin (a molecule with a recognized anti-inflammatory and anti-fibrotic activity in animal models) as control, at standard concentrations (0.2 mg/g).
To assess PPA effect as SerpinB3 inhibitor in an experimental murine model of steatohepatitis (NASH), a condition with a high risk of hepatic tumor, both SerpinB3-transgenic mice and the respective wild-type (C57BL/7) strain were used.
The animals were fed for 8 weeks with a methionine- and choline-deficient diet (MCD), a recognized steatohepatitis induction model, or with a normal diet. MCD diet-treated transgenic and control mice groups, starting from Week 4, were administered daily, by intraperitoneal route, PPA (0.01 μg/g), or Curcumin (a molecule with a recognized anti-inflammatory and anti-fibrotic activity in animal models) as control, at the standard concentration of 0.2 mg/g. […] This effect was more evident in transgenic mice.

[3] = test system: primary human monocytes; assay: Release of soluble CD163 (sCD163) by primary human monocytes; assay type: cell-based
Description: PPA effect was evaluated in this context as well, where primary monocytes incubated 1 week with SerpinB3 at a concentration of 200 ng/ml alone, or in association with PPA (100 ng/ml) were used. Monocytes kept in culture medium and monocytes treated with PPA alone at the same concentrations were used as controls.

[4] = SerpinB3 transgenic mice, MCD diet, PPA 0.01 μg/g i.p. daily from Week 4

| Molecule | SerpinB3 expression (mRNA) after induction from exogenous SerpinB3 ([1]; PPA 100 ng/ml + recombinant SerpinB3 200 ng/ml) | SerpinB3 expression (mRNA), constitutive ([1]; PPA 100 ng/ml alone, normalized to HPRT1) | liver histology: steatosis and lobular damage [2] | relative liver weight (liver weight/body weight) [2] | IL-1 beta gene expression [2, 4] | Mcp1 gene expression [2, 4] | TNF-alpha gene expression [2, 4] | alpha-SMA (marker of stellate cell activation) gene expression ([2]; both strains (wild-type and SerpinB3-transgenic), MCD diet, PPA 0.01 μg/g i.p. daily from Week 4) | sCD163 release in the culture medium after stimulation with SerpinB3 ([3]; primary monocytes, 1 week, SerpinB3 200 ng/ml + PPA 100 ng/ml) | spontaneous release of sCD163 ([3]; primary monocytes, PPA alone 100 ng/ml, compared with untreated monocytes) | liver histology: steatosis and lobular damage ([2]; listed as curcumin) | relative liver weight (liver weight/body weight) ([2]; listed as curcumin) | reduction of the inflammatory response ([2]; MCD diet, Curcumin 0.2 mg/g i.p. daily from Week 4) | SerpinB3 expression (mRNA) after treatment with exogenous SerpinB3 ([1]; recombinant SerpinB3 200 ng/ml) | release of sCD163 induced by SerpinB3 ([3]; primary human monocytes, SerpinB3 200 ng/ml, preliminary results) |
| --- | --- | --- | --- | --- | --- | --- | --- | --- | --- | --- | --- | --- | --- | --- | --- |
| O=C(O)CCN1CCCCC1 [PPA, 1-piperidinepropionic acid] | significantly reduce | significantly reduce; also recorded: inhibit SerpinB3 synthesis | reduced; also recorded: more marked steatosis, associated with a higher relative liver weight, compared to mice MCD diet-fed, but treated with PPA or curcumin | reduced; also recorded: higher relative liver weight, compared to mice MCD diet-fed, but treated with PPA or curcumin; also recorded: higher relative liver weight (liver weight/body weight) after MCD diet, compared to mice treated with the same diet | significant decrease | significant decrease | increase was non-evident; also recorded: increase proved not evident | marked reduction | markedly reduced | reduces |  |  |  |  |  |
| COc1cc(/C=C/C(=O)CC(=O)/C=C/c2ccc(O)c(OC)c2)ccc1O [Curcumin, reference compound] |  |  | reduced |  |  |  |  |  |  |  | more marked steatosis, associated with a higher relative liver weight, compared to mice MCD diet-fed, but treated with PPA or curcumin | higher relative liver weight, compared to mice MCD diet-fed, but treated with PPA or curcumin | obtained also with curcumin |  |  |
| B1 |  |  |  |  |  |  |  |  |  |  |  |  |  | increased | induces the release |
